# Data taken from patent US7678538B2, “Disinfection of biological fluids using asymmetric cyanine dyes” (American National Red Cross, priority 2005, dated 2010).
# Values joined by “and” are separate entries in the source; they are usually repeats but may differ in a detail not shown here. Equal entries are not always repeated.
# How the values were obtained:
# VSV = format: cell-based; conditions: 80 μM TO, 7.4 J/cm^2 cool white light, 20% hematocrit RBCs, 60 min incubation
# intracellular HIV = assay: HIV photoinactivation in RBC suspension, CCRF-CEM coculture and p24 ELISA; format: cell-based, HIV-1; conditions: 80 μM TO, 7.4 J/cm^2 cool white light, 20% hematocrit RBCs, 60 min incubation
# extracellular HIV = format: cell-based; conditions: 80 μM TO, 7.4 J/cm^2 cool white light, 20% hematocrit RBCs, 60 min incubation
# bacteriophage φ6 = assay: Bacteriophage photoinactivation in RBC suspension, plaque assay; format: cell-based; conditions: 80 μM TO, 7.4 J/cm^2 cool white light, 20% hematocrit RBCs, 60 min incubation
# Method: Leukodepleted 20% hematocrit RBCs suspended in Erythrosol (RAS-2) were oxygenated, inoculated with test organisms, incubated with TO, and illuminated with 7.4 J/cm^2 of cool white light. Control and treated samples were analyzed by appropriate assay. Identically prepared, but uncontaminated samples were phototreated, concentrated to 45% hematocrit, and assayed for potassium leakage, hemolysis and ATP during storage.
# (§1) Viruses or bacteria were added into approximately 50-60% hematocrit RBCs with subsequent addition of additive solution and TO to obtain 20% final hematocrit containing 80 μM of the dye. The final volume of the pathogen spike was equal to 10% for mammalian viruses and equal to 1% for bacteriophage and bacteria. […] A fluence rate of 8.2 mW/cm^2 was measured by an optical power meter (model 371, United Detector Technology, Hawthorn, Calif.) equipped with a silicone diode detector and radiometric filter (400-1000 nm, model 115-9, United Detector Technology). […]
# All virus assays were individually tested for cytotoxicity and interference. […] Log10 reduction values were calculated by subtracting the log10 titer/mL of RBCs with viable virus after illumination, or the log10 limit of detection/mL of RBCs without viable virus after illumination, from the measured log10 titer/mL of unilluminated RBCs.
# Serratia liquefaciens = assay: Bacteria photoinactivation in RBC suspension, colony count; format: cell-based; conditions: 80 μM TO, 7.4 J/cm^2 cool white light, 20% hematocrit RBCs, 60 min incubation
# Deinococcus radiodurans = assay: as above; format: cell-based; conditions: 80 μM TO, 7.4 J/cm^2 cool white light, 20% hematocrit RBCs, 60 min incubation
# Staphylococcus aureus = assay: as above; format: cell-based; conditions: 80 μM TO, 7.4 J/cm^2 cool white light, 20% hematocrit RBCs, 60 min incubation
# Pseudomonas fluorescens = assay: as above; format: cell-based; conditions: 80 μM TO, 7.4 J/cm^2 cool white light, 20% hematocrit RBCs, 60 min incubation
# Escherichia coli = assay: as above; format: cell-based; conditions: 80 μM TO, 7.4 J/cm^2 cool white light, 20% hematocrit RBCs, 60 min incubation
# enveloped viruses = format: cell-based
# Yersinia enterocolitica = assay: Bacteria photoinactivation in RBC suspension, colony count; format: cell-based; conditions: 80 μM TO, 7.4 J/cm^2 cool white light, 20% hematocrit RBCs, 60 min incubation
# Serratia marcescens = assay: as above; format: cell-based; conditions: 80 μM TO, 7.4 J/cm^2 cool white light, 20% hematocrit RBCs, 60 min incubation
# bacteria = assay: Bacteria photoinactivation, tested species overall; format: cell-based; conditions: 80 μM TO, 7.4 J/cm^2 cool white light
# Method: as §1, with “bacteria. RBC suspensions containing dye were incubated for 60 minutes and 2 ml aliquots were transferred to polystyrene culture dishes (50 mm bottom diameter) to produce a 1 mm blood film. For some bacterial experiments, RBC suspensions were incubated for different times prior to illumination.” for “bacteria.”
# We prepared bacterial stocks by inoculating a single colony into 5 mL of Luria broth (LB) and incubating cultures overnight under aerobic conditions at 30 or 37° C., depending on the strain. […] Colonies were counted after 24-72 hours of incubation at 30 or 37° C., with time and incubation temperature depending on the strain. Colonies were counted from all plates that contained between 1 and 750 colonies per plate. […]
# [1] = system: Staphylococcus epidermidis; assay: Bacteria photoinactivation in RBC suspension, colony count; format: cell-based; conditions: 80 μM TO, 7.4 J/cm^2 cool white light, 20% hematocrit RBCs, 60 min incubation
# PRV = format: cell-based, Pseudorabies virus; conditions: 80 μM TO, 7.4 J/cm^2 cool white light, 20% hematocrit RBCs, 60 min incubation
# BVDV = format: cell-based, Bovine viral diarrhea virus
# model viruses = conditions: dimethylmethylene blue phototreatment with quinacrine as competitive membrane binding inhibitor; cited from earlier work
smiles,measurement,setting,value
"CN1/C(=C/c2cc[n+](C)c3ccccc23)Sc2ccccc21.Cc1ccc(S(=O)(=O)[O-])cc1 [TO, 1-methyl-4-[(3-methyl-2(3H)-benzothiazolylidene)methyl]quinoliniump-tosylate]","Inactivation Log10, VSV",VSV,7.1 log10 and 7.1±0.2 log10 and 7.1 ± 0.2 (n = 4) log10
same,"Inactivation Log10, intracellular HIV",intracellular HIV,>6.3 (n = 3) log10
same,"Inactivation Log10, extracellular HIV",extracellular HIV,>6.5 (n = 3) log10
same,"Inactivation Log10, bacteriophage φ6",bacteriophage φ6,6.7 log10 and 6.7±0.7 log10 and 6.7 ± 0.7 (n = 3) log10
same,"Inactivation Log10, Serratia liquefaciens",Serratia liquefaciens,2.8 log10 and 2.8 ± 0.6 (n = 4) log10
same,"Inactivation Log10, Deinococcus radiodurans",Deinococcus radiodurans,>6.8 (n = 3) log10
same,"Inactivation Log10, Staphylococcus aureus",Staphylococcus aureus,2.4 log10 and 2.4 ± 0.7 (n = 4) log10
same,"Inactivation Log10, Pseudomonas fluorescens",Pseudomonas fluorescens,2.3 log10 and 2.3 ± 1.2 (n = 4) log10
same,"Inactivation Log10, Escherichia coli",Escherichia coli,5.3 log10 and 5.3 ± 2.0 (n = 4) log10
same,inactivation of tested enveloped viruses,enveloped viruses,5.1-7.4 log10
same,"Inactivation Log10, Yersinia enterocolitica",Yersinia enterocolitica,6.4 log10 and 6.4 ± 2.0 (n = 4) log10
same,"Inactivation Log10, Serratia marcescens",Serratia marcescens,3.5 log10 and 3.5 ± 2.5 (n = 3) log10
same,"inactivation of bacteria, another four (more resistant) species",bacteria,2-3 log10
same,"inactivation of bacteria, four (sensitive) species",bacteria,5-7 log10
same,"Inactivation Log10, Staphylococcus epidermidis",[1],>7.0 (n = 4) log10
same,day 42 hemolysis in ADSOL additive solution,RBCs,1.6±0.6%
same,"hemolysis levels during storage, TO versus TP phototreated RBCs",RBCs,similar
same,"hemolysis on day 42, TO maintained in the dark",RBCs,0.31%
same,"Inactivation Log10, PRV",PRV,5.4 log10 and 5.4±0.7 log10 and 5.4 ± 0.7 (n = 4) log10
same,"Inactivation Log10, BVDV",BVDV,6.2 log10 and 6.2±0.1 log10 and 6.2 ± 0.1 (n = 3) log10
Cc1cc(=[N+](C)C)cc2sc3cc(N(C)C)cc(C)c3nc1-2.[Cl-] [dimethylmethylene blue],reduction of model viruses,model viruses,> 6 log10
